From US10556994B2, “Strictly segmented thermoplastic elastomers as biodegradable biomaterials” (SyMO-Chem B.V., priority 2014, dated 2020) come the findings set out here.

Where two headings read alike, the source gives them in different places.

The term cell viability denotes a read-out of living cells in per cent, often relative to untreated cells. By solubility is commonly meant the dissolved amount per volume that the medium holds. A lower solubility goes with a poorly soluble substance.

Series [1] deals with 3T3 mouse fibroblasts.
Series [2] is described as follows: Solubility in PBS of hard block degradation products. It is filed as physicochemical. As to conditions: for solubility: aqueous buffer. The source says: The variety of the biodegradation products of the [AB]n materials of this invention is limited, where this is due to the simple and defined molecular structures of the [AB]n materials with only one type of soft block A and only one type of hard block B for a particular [AB]n material. […] Degradation products from the hard block are lower molecular weight molecules such as the molecules shown in Examples 25 and 26 (not: molecules 26E, 26F, 26G).

In series [3] the test system is 3T3 mouse fibroblasts. In words: MTT cytotoxicity assay. As to conditions: cells treated with medium exposed to the material, relative to untreated medium. (In general: Tetrazolium assays rely on reduction of a dye to a coloured formazan, in cell work by metabolically active cells.)

As for “poly(hexyl carbonate-random-co-ε-caprolactone) bisurea [Example 32]”, in the series with 3T3 mouse fibroblasts [1], the cell viability is recorded as 60-116%.

The molecule `NCCCCCNC(=O)CCCCCN` [Example 25C, 6-amino-N-(5-aminopentyl)hexanamide] displayed a solubility in series [2] of more than 5000 µg/mL.

Regarding Triton X-100, the cell viability with 3T3 mouse fibroblasts [3] came out at 0%.

As to `NCCCCNC(=O)CCCCC(=O)NCCCCN` [Example 25D, N^1,N^6-bis(4-aminobutyl)adipamide], the solubility in series [2] is more than 5000 µg/mL.

Take `O=C(O)CCCCCNC(=O)NCCCCNC(=O)NCCCCCC(=O)O` [Example 26B]: the “solubility in PBS” value in series [2] is more than 1000 µg/mL.

The molecule `NCCCCCCNC(=O)NCCCCCCN` [Example 25E, 1,3-bis-(6-aminohexyl)urea] had a solubility in series [2] of more than 5000 µg/mL.
